In patent US20030229037A1, “Novel cationic amphiphiles” (priority 2000, published 2003):

Tests used:
COS-7 cells [1] = assay: Transfection of COS-7 cells with lipid/DNA lipoplexes (luciferase reporter plasmid pCMXluc), efficiency relative to DOTAP; format: cell-based, green meerkat; details: for relative transfection efficiency (maximum): COS-7, pCMXluc, cationic lipid/DOPE 1:1, most effective lipid/DNA ratio of 1:1 to 15:1, 48 h, RLU/µg protein based on DOTAP = 100%
Protocol: A transfection experiment with cationic lipids can be broken down into four different individual steps. An important prerequisite for the success of a transfection experiment is the successful preparation of liposomes from the lipids to be tested (Step 1). DNA dissolved in buffer is then added to these liposomes, forming lipid/DNA complexes called lipoplexes (Step 2). The lipoplexes are then added to the cells (Step 3). The lipoplexes mediate the uptake of the DNA in the cell. Finally, the success of a transfection is quantified by determining the quantity of gene product forms and any toxicity that may occur is quantified by measuring the quantity of total protein (Step 4).
A reporter plasmid pCMXluc containing 8,600 base pairs (provided by R. Schüle) that codes for the enzyme luciferase was used to manufacture the lipoplexes. The composition of the lipoplexes and especially the proportion of lipid/DNA [Weibel et al., 1995; Felgner et al., 1994] are critical factors for obtaining a high level of protein expression. The number of negative charges of the plasmid used (one negatively-charged phosphate group per base) and the number of positive charges caused by adding cationic liposomes were used to calculate the proportion of lipid/DNA. For polycationic lipids, the number of all amino functions contained in the head group was made equal to the number of positive charges per lipid. Eight different lipoplexes with charge ratios from 1:1 to 15:1 were manufactured for each cationic lipid. In this process, each lipoplex received the same quantity of DNA but different quantities of lipid. An overview of the model calculation of various proportions of lipid/DNA is presented below.
After the plasmid (dissolved in buffer) was added to the liposomes, a pipette was used to carefully mix the formulation. It was then allowed to stand at room temperature for 60 minutes to allow the lipoplexes to form. The ripening conditions used here to prepare lipoplexes are based on findings described earlier [Yang and Huang, 1998] and also represent the result of a systematic optimization of lipoplex ripening conditions that were determined using a simple cationic lipid and a tricationic lipid, and which were used here to prepare all lipoplexes [Regelin, 2000].
The COS-7 cell line (kidney cells from the green meerkat, fibroblast-like cells) which is often used in transfection studies [You et al., 1999; Yu et al., 1999] was used for the cell experiments. This cell line is known to be easy to transfect and grows adherently. It was therefore expected that transfection data could be matched up with all synthesized cationic lipids, and that structure/effectiveness relationships could therefore be identified. The cell experiments were carried out in 96-well microtiter plates with 5,000 cells per well. Cell density has a considerable influence on the success of a transfection experiment when COS-7 cells are used [Deshmukh and Huang, 1997]: on the one hand, cells that are sowed too densely are harder to transfect than less densely sowed cells due to their reduced tendency to divide. While it is not the intention of the applicant to be bound to any particular theory, nor to affect in any measure the scope of the appended claims, it is presently believed that the explanation lies in that plasmids pass more easily into the nucleus of dividing cells [Mortimer et al., 1999], because the […] becomes full of holes or is dissolved during cell division. On the other hand, transfections of cells that have a very low cell density are often associated with elevated cytotoxicity, because more lipoplexes are now available per cell. A moderate cell density of 40-50% confluence, at which a sufficient level of cell division is observed, was selected for the transfection experiments to be carried out as part of this work. […]

[2] = amino groups, aqueous solution; literature values; cited from earlier work
[3] = Liposome preparation (lipid film hydration, ultrasound) and size distribution by photon correlation spectroscopy; format: physicochemical; details: equimolar DOPE, HBS buffer pH 7.4, ultrasound bath
Protocol: Preferably, the cationic amphiphile and helper lipid are present in a molar mixing ratio of from about five to one to about one to five. More preferably, the cationic amphiphile and helper lipid are present in a molar mixing ratio of from about two to one to about one to two. Still more preferably, the molar mixing ratio of cationic amphiphile to helper lipid is about 1:1. To prepare liposomes, the cationic lipid to be tested and a helper lipid were dissolved in an organic solvent (e.g., chloroform/methanol mixtures).
The lipid films can be hydrated by adding buffer, which also gives rise to multilamellar vesicles (MLV). The MLV are then converted into small unilamellar vesicles (SUV) via ultrasonic treatment. [Moog, 1999; Lasic, 1994 and 1995]. The duration of exposure to ultrasound required until a homogenous population of SUV formed depended on the strength of the ultrasound bath. When a common commercial ultrasound bath was used, the process lasted 15-20 minutes. When a high performance ultrasound bath from Bandelin was used (which is also used to homogenize tissue samples) the same results were obtained after just 2 minutes. All liposomes were characterized by measuring their size distribution using photon correlation spectroscopy. In this process, the sizes of liposomes found were preferably between about 20 and about 200 nm, more preferably between about 50 and about 150 nanometers.
To make the liposome preparation, dissolve 1.29 μmol of the simple cationic lipid to be tested (bicationic: 0.645 μmol, tricationic: 0.43 μmol) in chloroform/methanol (2:1 v/v) in a test tube with an equimolar quantity of DOPE. Use the simple cationic lipid DOTAP without the addition of DOPE.
Slowly blow off the organic solvent with a TCS sample preparation system (Vapotherm, BARLEY, Bielefeld, Germany) using nitrogen (30-60 minutes) at room temperature. The dried lipid films can be stored for many months at −20° C. […]

COS-7 cells [4] = assay: Total protein quantity per well (BCA test) as measure of cytotoxicity of the lipoplexes; format: cell-based, green meerkat; details: COS-7, lipid/DOPE 1:1 lipoplexes, 48 h
Protocol: 48 hours after the lipoplexes were added, the medium was removed and the cells were washed, because the medium would interfere with the tests to determine the transfection data. The cells were then lysed in order to make a homogeneous cell protein solution. The lysate of every single well was distributed and the total quantity of protein and the luciferase activity were determined in independent assays.
The total protein quantity was determined using the BCA test with bovine serum albumin as the standard and indicated in the unit μg/well. The protein quantity measured correlates with the number of adherent, living cells still present after transfection and can therefore be used as a measure of toxicity of the respective lipoplexes [Gao and Huang, 1991]. Comparisons of the protein quantities measured with results from cytotoxicity assays that were performed [Regelin, 2000] verify this relationship. The measured values were used in the calculation of transfection efficiency (see below).
Remove the supernatant medium completely, wash the cells once with a 0.9% NaCl solution, then add 50 μl lysis buffer (ROCHE, Germany) per well. […] Use a BCA test (PIERCE, Rockford, USA) to determine the quantity of total protein per well. […] Determine the protein concentration using the calibration curve in the spectral photometer (Spectra, TECAN, Germany) by quantifying the absorption at λ=550 nm.

Row | Compound | relative transfection efficiency (maximum) (COS-7 cells [1]) | liposome formation in mixture with DOPE [3] | other results
1 | CCCCCCCC/C=C\CCCCCCCC(=O)OCC(C[N+](C)(C)C)OC(=O)CCCCCCC/C=C\CCCCCCCC.[Cl-] (stereo not shown) [DOTAP, N-[1-(2,3-dioleoyloxy)propyl]-N,N,N-trimethylammoniumchloride, reference compound] |  |  | transfection efficiency of the standard lipid (defined as 100%) (COS-7 cells [1]; DOTAP without DOPE, lipid/DNA 2.5:1, COS-7, external standard in each microtiter plate): 100%
2 | NCCCCNCCCN [Spermidine] |  |  | pKa [2]: above 8
3 | CCCCCCCCCCCCCCOCC(COC(=O)CN(C)C)OCCCCCCCCCCCCCC (stereo not shown) [compound 110] | only very low transfection efficiencies | formed no liposomes | 
4 | CCCCCCCCCCCCCCOCC(COC(=O)C[N+](C)(C)C)OCCCCCCCCCCCCCC (stereo not shown) [compound 111] | 83% | used successfully in a mixture with DOPE to prepare liposomes | 
5 | CC(C)CCC[C@@H](C)[C@H]1CC[C@H]2[C@@H]3CC=C4C[C@@H](OC(=O)CN(C)C)CC[C@]4(C)[C@H]3CC[C@]12C [lipid 4, N-Cholesteryloxycarbonylmethyl-N,N-dimethylamine] | did not result in a single transfection | liposomes could not be prepared | cytotoxicity of the lipoplexes (total protein quantity) (COS-7 cells [4]): No cytotoxicity was observed
6 | CCCCCCCCCCCCCCOCC(COC(=O)CNCCCCNCCCN)OCCCCCCCCCCCCCC.O=CO (stereo not shown) [lipid 115, 10-((2,3-di-tetradecyloxy)-propyloxcarbonylmethyl)-1,5,10-triazadekan formic acid salt] | 135% |  | 
7 | CN(C)C [trimethylamine] |  |  | pKa [2]: ~10
8 | Lipid A | approx. 300% |  | cytotoxicity of the lipoplexes (total protein quantity) (COS-7 cells [4]): do not exhibit elevated cytotoxicities
